The test system of series [1] is PC12 cells. Briefly: Neuroprotection against H2O2-induced cell death in PC12 cells (MTT). Format: cell-based. As to conditions: H2O2 (150 μM)-induced injury, mean ± SEM. How it is done:
The cell viability was measured using MTT [3-(4,5-dimethylthiazol-2-yl)-2,5-diphenyl tetrazolium bromide] assay ([Datki et al., 2003]). PC12 cells (from the Iranian Biological Resource Center, IBRC) received different treatments, including no treatment (control), 150 μM H2O2 alone, or 150 μM H2O2 in combination with 0.1–50 μM of the tested compound. The cells were seeded at 1 × 10^4 cells/well and incubated at 37 °C under a 5% CO2 atmosphere for 24 h, then treated with the tested compound and incubated for 3 h. Next, the cells were exposed to H2O2 for 2 h again. The MTT solution (20 μl, 5 mg/ml) was next replaced with the medium and incubated for 4 h. 100 μl of DMSO was added to dissolve the formazan precipitate. Absorbance was then measured at 570 nm using a multi-mode plate reader (Biotek, Winooski, VT). Cell viability is expressed as a percentage relative to the untreated control.

Series [2] has as its target T1, AChE (electric eel) (Electrophorus electricus, UniProt O42275).
T1 construct: purchased Sigma-Aldrich
Briefly: biochemical. The settings on record: electric eel AChE; mean ± SEM of three experiments. It is filed as biochemical. How it is done:
(§1) AChE, BuChE, 5,5'-dithiobis (2-nitrobenzoic acid) (DTNB), acetyl- and butyrylthiocholine iodides were purchased from Sigma-Aldrich. Five different concentrations of the corresponding compounds in ethanol-DMSO (9:1) were prepared. […] After 3 min of incubation, the substrate solution (acetylthiocholine iodide or butyrylthiocholine iodide, 0.05 M) was added and then incubated for at least 1 min at 25°C. […] The inhibition curve was obtained by plotting the percentage of enzyme activity (100% for the reference) versus the logarithm of the tested compound concentration. […]

For series [3], the target named is T2, BuChE (equine serum) (Equus caballus, UniProt P81908).
T2 construct: purchased Sigma-Aldrich
T2 sequence (P81908 whole entry): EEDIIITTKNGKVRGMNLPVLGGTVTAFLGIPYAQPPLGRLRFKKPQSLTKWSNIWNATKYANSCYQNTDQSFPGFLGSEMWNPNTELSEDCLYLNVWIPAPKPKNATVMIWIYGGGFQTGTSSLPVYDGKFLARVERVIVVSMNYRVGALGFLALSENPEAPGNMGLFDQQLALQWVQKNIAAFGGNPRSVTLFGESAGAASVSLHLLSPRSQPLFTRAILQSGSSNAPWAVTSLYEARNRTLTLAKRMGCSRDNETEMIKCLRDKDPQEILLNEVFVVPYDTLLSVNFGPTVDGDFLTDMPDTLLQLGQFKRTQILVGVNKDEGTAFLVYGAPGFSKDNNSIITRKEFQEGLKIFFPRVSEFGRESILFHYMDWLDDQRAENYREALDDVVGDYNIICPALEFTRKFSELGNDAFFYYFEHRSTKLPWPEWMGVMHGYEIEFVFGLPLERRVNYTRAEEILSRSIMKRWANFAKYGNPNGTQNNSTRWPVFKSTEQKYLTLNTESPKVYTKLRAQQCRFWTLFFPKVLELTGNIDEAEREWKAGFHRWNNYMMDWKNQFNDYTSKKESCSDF
Briefly: biochemical. As to conditions: equine serum BuChE; mean ± SEM of three experiments. It is filed as biochemical. How it is done:
as §1

Series [4] addresses T3, Aβ1-42 (Homo sapiens, UniProt P05067).
T3 construct: Amyloid-β protein 1–42 (Sigma A9810) was dissolved; purchased Sigma A9810
Briefly: Inhibition of self-induced Aβ1-42 aggregation (ThT assay). Format: biochemical. The settings on record: Aβ1-42 20 μM, compound 100 μM, after 48 h, ThT, mean ± SEM of three experiments. As for the experimental part: Inhibitory properties of the compounds on self-induced and AChE-induced aggregation of amyloid-β protein 1–42 was determined using a thioflavin T (ThT)-based fluorescence assay with slight modifications ([Levine, 1993]). The ThT excitation/emission was measured at 448 nm/490 nm at 48 h using a SpectraMax® Microplate Reader. Amyloid-β protein 1–42 (Sigma A9810) was dissolved in Phosphate Buffer Saline pH 7.4 (PBS, HyClone Thermo Scientific) containing ammonium hydroxide (1%). Aβ1-42 (50 μM) was incubated for 24 h at 37°C for prefibrillation.
To determine AChE-induced Aβ1-42 aggregation, Aβ1-42 (20 μl) ± human recombinant AChE (0.01 u/ml, Sigma C1682) were added to […] of PBS buffer pH 7.4 including 0.15 M NaCl and 20 μM thioflavin T (ThT). The mixture was incubated at 37°C in the absence and presence of the compounds (100 μM) and the fluorescence intensities were determined. Due to the presence of the tested compounds, inhibition of self- or AChE-induced aggregation percent was determined by the following calculation: [100-((IFi/IFo) × 100)] where IFi and IFo are the fluorescence intensities obtained for Aβ ± AChE in the presence and in the absence of inhibitors.

T1 sequence (O42275 24-633): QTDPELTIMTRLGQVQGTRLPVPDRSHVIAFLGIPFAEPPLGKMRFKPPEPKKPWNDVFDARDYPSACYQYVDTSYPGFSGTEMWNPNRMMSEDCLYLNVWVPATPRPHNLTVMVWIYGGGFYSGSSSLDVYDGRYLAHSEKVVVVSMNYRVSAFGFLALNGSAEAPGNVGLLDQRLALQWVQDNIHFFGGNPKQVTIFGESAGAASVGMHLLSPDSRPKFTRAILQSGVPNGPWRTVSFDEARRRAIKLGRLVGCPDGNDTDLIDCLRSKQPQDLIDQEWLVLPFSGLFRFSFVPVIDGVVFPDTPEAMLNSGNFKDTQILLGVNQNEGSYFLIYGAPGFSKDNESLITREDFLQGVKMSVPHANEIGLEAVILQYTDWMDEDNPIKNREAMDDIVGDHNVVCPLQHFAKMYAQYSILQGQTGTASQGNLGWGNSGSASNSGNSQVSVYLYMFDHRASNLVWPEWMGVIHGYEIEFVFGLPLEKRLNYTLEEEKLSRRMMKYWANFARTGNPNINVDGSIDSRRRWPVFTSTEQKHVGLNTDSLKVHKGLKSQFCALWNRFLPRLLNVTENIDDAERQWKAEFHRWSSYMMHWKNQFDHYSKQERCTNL
T3 sequence (P05067 672-713 limits assumed): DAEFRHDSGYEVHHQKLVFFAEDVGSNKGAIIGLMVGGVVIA

As for `COc1ccc2oc(=O)c(-c3ccc(OCCC[n+]4ccccc4)cc3)cc2c1.[Br-]` [Compound 3b, 1-(3-(4-(6-Methoxy-2-oxo-2H-chromen-3-yl)phenoxy)propyl)pyridinium Bromide], the “PC12 cell viability (% of control)” value in series [1] (0.1 μM compound) is listed as 31.7 ± 1.4 % of control; in series [1] (1 μM compound) it was 37.6 ± 1.1 % of control; in series [1] (5 μM compound), 43.3 ± 0.9 % of control; in series [1] (10 μM compound), 45.4 ± 1.3 % of control; in series [1] (20 μM compound), 49.6 ± 0.9 % of control; in series [1] (50 μM compound) it was 54.3 ± 1.6 % of control. Further, the concentration for half-maximal inhibition (IC50) – broadly, the point on the concentration scale where inhibition reaches its midpoint – in series [2] came to 4 ± 1 nM; in series [3], 68 ± 6 nM.

On to `COc1ccc2cc(-c3ccc(OCCC[n+]4ccccc4)cc3)c(=O)oc2c1` [Compound 3c, 1-(3-(4-(7-Methoxy-2-oxo-2H-chromen-3-yl)phenoxy)propyl)pyridinium Bromide], for which the results for the IC50 in series [2] and in series [3] were 7 ± 1 nM and 57 ± 10 nM, respectively.

As for `COc1cccc2cc(-c3ccc(OCCC[n+]4ccccc4)cc3)c(=O)oc12` [Compound 3d, 1-(3-(4-(8-Methoxy-2-oxo-2H-chromen-3-yl)phenoxy)propyl)pyridinium Bromide], the IC50 came to 81 ± 4 nM in series [2] and 79 ± 9 nM in series [3].

Turning to `O=c1oc2ccc(Br)cc2cc1-c1ccc(OCCC[n+]2ccccc2)cc1` [Compound 3e, 1-(3-(4-(6-Bromo-2-oxo-2H-chromen-3-yl)phenoxy)propyl)pyridinium Bromide], the IC50 in series [2] came out at 15 ± 3 nM; in series [3], 33 ± 5 nM.

Take `O=c1oc2ccccc2cc1-c1ccc(OCCCC[n+]2ccccc2)cc1.[Br-]` [Compound 3g, 1-(4-(4-(2-Oxo-2H-chromen-3-yl)phenoxy)butyl)pyridinium Bromide]: the “PC12 cell viability (% of control)” value was 30.2 ± 1.4 % of control in series [1] (0.1 μM compound); 33.6 ± 1.2 % of control in series [1] (1 μM compound); 36.6 ± 0.9 % of control in series [1] (5 μM compound); 45.8 ± 0.3 % of control in series [1] (10 μM compound); 48.7 ± 0.9 % of control in series [1] (20 μM compound); 49.9 ± 0.9 % of control in series [1] (50 μM compound). For the same compound, the concentration for half-maximal inhibition (IC50) is 7 ± 1 nM in series [2] and 91 ± 18 nM in series [3].

For `COc1ccc2oc(=O)c(-c3ccc(OCCCC[n+]4ccccc4)cc3)cc2c1` [Compound 3h, 1-(4-(4-(6-Methoxy-2-oxo-2H-chromen-3-yl)phenoxy)butyl)pyridinium Bromide], the figures for the IC50 in series [2] and in series [3] were 1000 ± 37 nM and 106 ± 8 nM, respectively.

Take `COc1ccc2cc(-c3ccc(OCCCC[n+]4ccccc4)cc3)c(=O)oc2c1` [Compound 3i, 1-(4-(4-(7-Methoxy-2-oxo-2H-chromen-3-yl)phenoxy)butyl)pyridinium Bromide]: the IC50 in series [2] amounted to 144 ± 9 nM; in series [3], 46 ± 1 nM.

As to `COc1cccc2cc(-c3ccc(OCCCC[n+]4ccccc4)cc3)c(=O)oc12` [Compound 3j, 1-(4-(4-(8-Methoxy-2-oxo-2H-chromen-3-yl)phenoxy)butyl)pyridinium Bromide], the IC50 in series [2] turned out to be 31 ± 5 nM; in series [3] it was 97 ± 19 nM.

On to `O=c1oc2ccc(Br)cc2cc1-c1ccc(OCCCC[n+]2ccccc2)cc1` [Compound 3k, 1-(4-(4-(6-Bromo-2-oxo-2H-chromen-3-yl)phenoxy)butyl)pyridinium Bromide], for which the IC50 in series [2] is 40 ± 5 nM; in series [3], 92 ± 9 nM.

In the case of `O=c1oc2ccc([N+](=O)[O-])cc2cc1-c1ccc(OCCCC[n+]2ccccc2)cc1.[Br-]` [Compound 3l, 1-(4-(4-(6-Nitro-2-oxo-2H-chromen-3-yl)phenoxy)butyl)pyridinium Bromide], the “PC12 cell viability (% of control)” value is on record as 23.7 ± 0.5 % of control in series [1] (0.1 μM compound); 27.3 ± 1.2 % of control in series [1] (1 μM compound); 33.5 ± 1.2 % of control in series [1] (5 μM compound); 37.8 ± 1.0 % of control in series [1] (10 μM compound); 51.6 ± 1.1 % of control in series [1] (20 μM compound); 55.7 ± 2.0 % of control in series [1] (50 μM compound). Besides, the values for the IC50 in series [2] and in series [3] were 3 ± 1 nM and 59 ± 11 nM, respectively.

As to `O=c1oc2ccccc2cc1-c1ccc(OCCCCC[n+]2ccccc2)cc1` [Compound 3m, 1-(5-(4-(2-Oxo-2H-chromen-3-yl)phenoxy)pentyl)pyridinium Bromide], the IC50 was 72 ± 8 nM in series [2] and 86 ± 10 nM in series [3].

As to `COc1cccc2cc(-c3ccc(OCCCCC[n+]4ccccc4)cc3)c(=O)oc12` [Compound 3n, 1-(5-(4-(8-Methoxy-2-oxo-2H-chromen-3-yl)phenoxy)pentyl)pyridinium Bromide], the IC50 in series [2] was 15 ± 2 nM; in series [3], 123 ± 24 nM.

On to `O=c1oc2ccc([N+](=O)[O-])cc2cc1-c1ccc(OCCCCC[n+]2ccccc2)cc1` [Compound 3o, 1-(5-(4-(6-Nitro-2-oxo-2H-chromen-3-yl)phenoxy)pentyl)pyridinium Bromide], for which the IC50 is 22 ± 4 nM in series [2] and 27 ± 2 nM in series [3].

For `O=c1oc2ccc(Br)cc2cc1-c1ccc(OCCCCC[n+]2ccccc2)cc1` [Compound 3p, 1-(5-(4-(6-Bromo-2-oxo-2H-chromen-3-yl)phenoxy)pentyl)pyridinium Bromide], the figures for the concentration for half-maximal inhibition (IC50) in series [2] and in series [3] were 3 nM and 49 ± 5 nM, respectively.

Turning to `CCc1ccc(C)[n+](CCCCCOc2ccc(-c3cc4cc(Br)ccc4oc3=O)cc2)c1` [Compound 3q, 1-(5-(4-(6-Bromo-2-oxo-2H-chromen-3-yl)phenoxy)pentyl)-5-ethyl-2-methylpyridin-1-ium Bromide], the IC50 was 19 ± 1.6 nM in series [2] and 22 ± 2.3 nM in series [3].

Consider `CN(C)c1cc[n+](CCCOc2ccc(-c3cc4ccccc4oc3=O)cc2)cc1` [Compound 3s, 4-(Dimethylamino)-1-(3-(4-(2-oxo-2H-chromen-3-yl)phenoxy)propyl)pyridin-1-ium Bromide], for which the IC50 in series [2] is 22 ± 1.9 nM; in series [3] it was 34 ± 2.6 nM.

Turning to `COc1cc2c(cc1OC)C(=O)C(CC1CCN(Cc3ccccc3)CC1)C2` (stereo not drawn) [Donepezil, reference compound], in series [4], the “Inhibition of self-induced Aβ aggregation” value turned out to be 30.8 ± 1.7%.

Consider `O=c1c(O)c(-c2ccc(O)c(O)c2)oc2cc(O)cc(O)c12` [Quercetin, reference compound], for which the “PC12 cell viability (% of control)” value is given as 37.7 ± 1.2 % of control in series [1] (0.1 μM compound); 44.2 ± 0.7 % of control in series [1] (1 μM compound); 50.7 ± 0.1 % of control in series [1] (5 μM compound); 55.8 ± 0.3 % of control in series [1] (10 μM compound); 59.6 ± 0.8 % of control in series [1] (20 μM compound); 61.0 ± 0.8 % of control in series [1] (50 μM compound).

For the origin of these results see PMC9280334 (Frontiers in Chemistry, 2022).
